A short description of series [1]: Whole blood stability, monkey. The class given is in vitro ADME. The settings on record: 37° C.; for half-life at 5 µM: read-out: Whole Blood Stability (T1/2) (converted). The method, then:
(§1) Representative compounds of the invention were tested for their whole blood stability as follows:
(§2) Test compounds were prepared as a 500 μM stock solution in DMSO (Adding 10 μl of 10 mM DMSO stock solution to 190 μl of 100% DMSO). Whole blood was thawed on ice. A whole blood plate was prepared by adding 460 μl of the whole blood (different species as needed) to a 96-well in ml deep well plate. The whole blood plate was preincubated at 37° C. for 10 min. 4 μl of compound solution and 396 μl of whole blood was added to the plate and mixed thoroughly. Each sample was aliquoted (30 μl) to the incubation plate (cluster tubes) and quenched at time zero with ice-cold 100% ACN, and the incubation plates were added to the 37° C. incubator (200 μl).
(§3) The time zero sample was maintained at 4° C. until centrifuged. All other samples were quench at different time points (1, 2, 4 hr), vortexed for 30 seconds and centrifuged at 3500 rpm for 15 min at 4° C. 30 μl of supernatant was added to 170 μl 0.1% FA aqueous solution and the sample was analyzes by LC/MS/MS.

The nature of series [2]: Whole blood stability, dog. In kind it is in vitro ADME. The settings on record: 37° C.; for half-life at 5 µM: read-out: Whole Blood Stability (T1/2) (converted). The method, then:
as §1, §2, §3

The target of series [3] is T1, KRAS G12C 1-169, his-tagged protein, GDP-loaded (Homo sapiens, UniProt P01116, G12C).
T1 construct: KRAS G12C 1-169, his-tagged protein, GDP-loaded
Put plainly: KRAS G12C covalent binding (% modification) by mass spectrometry, ten or three minute incubation. To be noted: covalent binding to KRAS G12C after a ten minute incubation period. The essentials: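 GDP-loaded protein in 20 mM Hepes, 150 mM NaCl, 1 mM MgCl2 was incubated with compound (final 100, 30 or 10 μM; 2% DMSO) at room temperature, then quenched with formic acid. Intact-protein LC-MS with charge-envelope deconvolution gave masses and intensities of modified and unmodified species.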

T1 sequence (P01116 1-169 isoform P01116-2 G12C): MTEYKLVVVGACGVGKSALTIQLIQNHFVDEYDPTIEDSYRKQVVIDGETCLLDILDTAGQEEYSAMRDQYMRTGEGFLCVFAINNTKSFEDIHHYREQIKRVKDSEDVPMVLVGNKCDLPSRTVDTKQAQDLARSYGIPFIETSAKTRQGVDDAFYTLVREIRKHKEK

Regarding `C=CC(=O)N1C[C@H](C)N(c2nc(N3CC(N(C)C)C3)nc3c(F)c(-c4c(O)cccc4F)c(Cl)cc23)C[C@H]1C` (atropisomer, axis not shown) [Compound 52, 1-((2R,5S)-4-((S)-6-chloro-2-(3-(dimethylamino)azetidin-1-yl)-8-fluoro-7-(2-fluoro-6-hydroxyphenyl)quinazolin-4-yl)-2,5-dimethylpiperazin-1-yl)prop-2-en-1-one], the figures for the half-life at 5 µM in series [1] and in series [2] were 6.8 h and 5.1 h, respectively. Further, the Binding % entry in series [3] was “+++ (+++ indicates binding activity greater than 90%)”.

Consider `C=CC(=O)N1CCN(c2nc(N3CC(N(C)C)C3)nc3c(F)c(-c4c(O)cccc4F)c(Cl)cc23)C[C@H]1C` (atropisomer, axis not shown) [Compound 60, 1-((R)-4-((S)-6-chloro-2-(3-(dimethylamino)azetidin-1-yl)-8-fluoro-7-(2-fluoro-6-hydroxyphenyl)quinazolin-4-yl)-2-methylpiperazin-1-yl)prop-2-en-1-one], for which the half-life at 5 µM is 1.45 h in series [1] and 2.3 h in series [2].

Consider `C=CC(=O)N1CCN(c2nc(OCCN3CC(F)(F)C3)nc3c(F)c(-c4c(O)cccc4F)c(Cl)cc23)C[C@H]1C` (atropisomer, axis not shown) [Compound 63, 1-((R)-4-((S)-6-chloro-2-(2-(3,3-difluoroazetidin-1-yl)ethoxy)-8-fluoro-7-(2-fluoro-6-hydroxyphenyl)quinazolin-4-yl)-2-methylpiperazin-1-yl)prop-2-en-1-one], for which the half-life at 5 µM in series [1] is 1.2 h; in series [2], 1.3 h.

For the compound `C=CC(=O)N1CCN(c2nc(N3CC(N(C)C)C3)nc3c(F)c(-c4c(C)ccc5cn[nH]c45)c(Cl)cc23)C[C@H]1C` (atropisomer, axis not shown) [Compound 70, 1-((R)-4-((R)-6-chloro-2-(3-(dimethylamino)azetidin-1-yl)-8-fluoro-7-(6-methyl-1H-indazol-7-yl)quinazolin-4-yl)-2-methylpiperazin-1-yl)prop-2-en-1-one], the half-life at 5 µM was 1.3 h in series [1] and 3 h in series [2].

In the case of `C=CC(=O)N1C[C@H](C)N(c2nc(N3CC(N(C)C)C3)nc3c(F)c(-c4c(C)ccc5cn[nH]c45)c(Cl)cc23)C[C@H]1C` (atropisomer, axis not shown) [Compound 72, 1-((2R,5S)-4-((R)-6-chloro-2-(3-(dimethylamino)azetidin-1-yl)-8-fluoro-7-(6-methyl-1H-indazol-7-yl)quinazolin-4-yl)-2,5-dimethylpiperazin-1-yl)prop-2-en-1-one], the figures for the “Whole Blood Stability (T1/2)” value in series [1] and in series [2] were 3.9 h and 5.95 h, respectively. For the same compound, the Binding % entry in series [3] is “+++ (+++ indicates binding activity greater than 90%)”.

For `C=CC(=O)N1C[C@H](C)N(c2nc(OCCN(CC)CC)nc3c(F)c(-c4c(O)cccc4F)c(Cl)cc23)C[C@H]1C` (atropisomer, axis not shown) [Compound 75, 1-((2R,5S)-4-((S)-6-chloro-2-(2-(diethylamino)ethoxy)-8-fluoro-7-(2-fluoro-6-hydroxyphenyl)quinazolin-4-yl)-2,5-dimethylpiperazin-1-yl)prop-2-en-1-one], the half-life at 5 µM in series [1] is 3.9 h; in series [2], 4.8 h.

As for `C=CC(=O)N1CCN(c2nc(OCCN(CC)CC)nc3c(F)c(-c4c(O)cccc4F)c(Cl)cc23)CC1` [A, reference compound], the half-life at 5 µM was 0.1 h in series [1] and 0.6 h in series [2].

Take `C=CC(=O)N1CCN(c2nc(N3CC(N(C)C)C3)nc3c(F)c(-c4c(O)cccc4F)c(Cl)cc23)CC1` [B, reference compound]: the half-life at 5 µM was 0.1 h in series [1] and 0.7 h in series [2].

On to `C=CC(=O)N1CCN(c2nc(OCCN3CC(F)(F)C3)nc3c(F)c(-c4c(O)cccc4F)c(Cl)cc23)CC1` [C, reference compound], for which the half-life at 5 µM was 0.2 h in series [1] and 0.6 h in series [2].

`C=CC(=O)N1C[C@H](C)N(c2nc(OCCN3CC(F)(F)C3)nc3c(F)c(-c4c(O)cccc4F)c(Cl)cc23)C[C@H]1C` [Compound 38, 1-((2R,5S)-4-(6-chloro-2-(2-(3,3-difluoroazetidin-1-yl)ethoxy)-8-fluoro-7-(2-fluoro-6-hydroxyphenyl)quinazolin-4-yl)-2,5-dimethylpiperazin-1-yl)prop-2-en-1-one]: the “Whole Blood Stability (T1/2)” value in series [1] is 7.8 h. Further, the half-life at 5 µM in series [2] was 3 h. Besides, the Binding % entry in series [3] is on record as “+++ (+++ indicates binding activity greater than 90%)”.

In the case of `C=CC(=O)N1[C@H](C)CN(c2nc(N3CC(N(C)C)C3)nc3c(F)c(-c4c(O)cccc4F)c(Cl)cc23)C[C@@H]1C` [Compound 68, 1-((2R,6S)-4-((R)-6-chloro-2-(3-(dimethylamino)azetidin-1-yl)-8-fluoro-7-(2-fluoro-6-hydroxyphenyl)quinazolin-4-yl)-2,6-dimethylpiperazin-1-yl)prop-2-en-1-one], the half-life at 5 µM in series [1] was 1 h; in series [2], 1.6 h.

Source of the values: patent US11021470B2, “2-substituted quinazoline compounds comprising a substituted heterocyclic group and methods of use thereof” (Araxes Pharma LLC, priority 2015, dated 2021).
